Data on seven compounds can be found in patent US20040162328A1, “Compounds of the family of 3-alkyl-(4,5-diphenyl-imidazol-1-yl) and their use as soothing agents” (priority 2001, published 2004).

Read-outs that look alike come from different tables or passages of the source.

The assay relates to interleukin-8 secreted by normal human epidermal keratinocytes (NHEKs). Nature of the assay: Inhibition of interleukin-8 secretion by NHEK cells after stimulation with PMA as irritant agent. Type of assay: cell-based. The following applies: 160 nM PMA. An excerpt: Inhibition of the response of superficial epidermal cells to an irritant agent by assay of the interleukin-8 secreted by normal human epidermal keratinocytes (NHEKS) after stimulation with phorbol 12-myristate 13-acetate (PMA) as irritant agent.
This study uses the test developed by Wilmer [Wilmer, J. L. et al., J. invest. Dermatol., 102: 915-922 (1994)]. This test allows the evaluation of the antiirritant potential of various molecules, on a human keratinocyte (NHEK) cell line. In this test, an irritant situation is mimicked by exacerbating the production of IL-8 of the NHEKs by adding PMA to the culture medium, IL-8 being involved in initiating the keratinocyte irritation. The antiirritant effect of a molecule is then measured by means of its inhibitory action with respect to this exacerbated production.
Normal human epidermal keratinocytes (NHEKs) sold by the company Clonetics and distributed in France by the company TEBU are incubated in the presence of 160 nM of PMA for 24 hours at 37° C. In response to the PMA, the production of the chemotactic agent interleukin-8 (IL-8) is measured by enzymatic assay using an assay kit (Elisa D8050) sold by the company R&D. The absorbance values are measured using a microplate reader (MRX/Dynatech) according to the procedures supplied with the assay kit. To evaluate the antiirritant protective effect of the various compounds, the production of the chemotactic marker IL-8 by the human keratinocytes is measured in the presence of various concentrations of the test compound.
The results are expressed as a percentage of the control values after subtracting the background noise and as a percentage of inhibition of these values obtained in the presence of the compounds.

The mark [1] stands for this setting: Study No. 2 (Comparative Tests), compound at 10 μM, same batch of NHEK cells, 24 hours, read-out: % inhibition of secretion of IL-8.

As to `c1ccc(-c2ncn(CCCN3CCOCC3)c2-c2ccccc2)cc1` [Example 1, 4-[3-(4,5-diphenylimidazol-1-yl)-propyl]morpholine], the inhibition at 1 µM (Study No. 1, compound at 1 μM, NHEK, 24 hours at 37° C., read-out: % inhibition of secretion of IL-8 (at 1 μM)) is 86%. Also, the inhibition at 10 µM by setting is: (Study No. 1, compound at 10 μM, NHEK, 24 hours at 37° C., read-out: % inhibition of secretion of IL-8 (at 10 μM)) 95%; under setting [1], 35%. Regarding `COC(=O)CCCCn1cnc(-c2ccccc2)c1-c1ccccc1` [Example 2, methyl (4,5-diphenyl-imidazole)-1-ylbutyl-4-carboxylate], the inhibition at 10 µM under setting [1] was found to be 10%.

Consider `O=C1c2ccccc2C(=O)N1CCCCn1cnc(-c2ccccc2)c1-c1ccccc1` [Example 3, 4-phthalimidebutyl-(4,5-diphenyl-imidazol)-1-yl], for which the inhibition at 10 µM under setting [1] turned out to be 39%. The same measure, in the same setting: next, `O=C1c2ccccc2C(=O)N1CCCn1cnc(-c2ccccc2)c1-c1ccccc1` [Example 4, 3-phthalimidepropyl-(4,5-diphenyl-imidazol)-1-yl]: 37%. `COC(=O)CCCn1cnc(-c2ccccc2)c1-c1ccccc1` [Example 5, methyl (4,5-diphenyl-imidazol)-1-ylpropyl-3-carboxylate]: the inhibition at 10 µM under setting [1] amounted to 22%. As for `c1ccc(-c2ncn(CCCN3CCCCC3)c2-c2ccccc2)cc1` [Example 6], under setting [1], the inhibition at 10 µM amounted to 41%. On the same count and under the same terms, next, `c1ccc(-c2ncn(CCN3CCCCC3)c2-c2ccccc2)cc1` [JP 44 029 199, reference compound]: less than 10%.
